Experimental data as given in patent US11446287B2, “Compounds and methods for EP300 or CBP modulation and indications therefor” (Opna Immuno-Oncology SA, priority 2019, dated 2022).

target: T1, Recombinant human CBP containing the bromodomain (CBP-BD (1043-1159)) (Homo sapiens, UniProt Q92793); assay: CBP Alphascreen binding assay; settings: read-out: CREBBP (CBP) IC50
T1 construct: Recombinant human CBP bromodomain (CBP-BD (1043-1159)); made in house; host or cells: E. coli BL21-CodonPlus (DE3), modified pET vector
How it was run: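 Buffer: 50 mM HEPES pH 7.5, 50 mM NaCl, 0.01% BSA, 0.01% Triton X-100, 2 mM DTT. The signal was normalised to plate controls and fitted with a four-parameter curve to give IC50.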

T1 sequence (Q92793 1081-1197): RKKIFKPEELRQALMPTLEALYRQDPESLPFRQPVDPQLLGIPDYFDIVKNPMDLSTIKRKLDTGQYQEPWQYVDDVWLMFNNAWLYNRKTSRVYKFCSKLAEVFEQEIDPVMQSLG

Row | Compound | IC50 [nM]
1 | Cc1nn(CC(C)(C)O)cc1-n1cc(-c2ccc(C(=O)O)cc2OC(F)(F)F)c2cc(-c3c(C)noc3C)cnc21 [P-0365, 4-(5-(3,5-dimethylisoxazol-4-yl)-1-(1-(2-hydroxy-2-methylpropyl)-3-methyl-1H-pyrazol-4-yl)-1H-pyrrolo[2,3-b]pyridin-3-yl)-3-(trifluoromethoxy)benzoic acid] | 0.1 to 1000
2 | Cc1noc(C)c1-c1cnc2c(c1)c(-c1ccc(C(=O)O)cc1OC(F)(F)F)c(C)n2C(C1CC1)C1CC1 [P-0343, 4-(1-(dicyclopropylmethyl)-5-(3,5-dimethylisoxazol-4-yl)-2-methyl-1H-pyrrolo[2,3-b]pyridin-3-yl)-3-(trifluoromethoxy)benzoic acid] | 0.1 to 1000
3 | Cc1noc(C)c1-c1cnc2c(c1)c(-c1ccc(C(=O)O)cc1OC(F)(F)F)cn2-c1ccc(C(N)=O)cc1 [P-0323, 4-(1-(4-carbamoylphenyl)-5-(3,5-dimethylisoxazol-4-yl)-1H-pyrrolo[2,3-b]pyridin-3-yl)-3-(trifluoromethoxy)benzoic acid] | 0.1 to 1000
4 | CCOc1cc(C(=O)O)cc(Cl)c1-c1cn(C2CCOCC2)c2ncc(-c3c(C)noc3C)cc12 [P-0371, 3-chloro-4-(5-(3,5-dimethylisoxazol-4-yl)-1-(tetrahydro-2H-pyran-4-yl)-1H-pyrrolo[2,3-b]pyridin-3-yl)-5-ethoxybenzoic acid] | 0.1 to 1000
5 | CCOc1cc(C(=O)O)nc(OCC)c1-c1cn(-c2ccc(F)cc2F)c2ncc(-c3c(C)noc3C)cc12 [P-0329, 5-(1-(2,4-difluorophenyl)-5-(3,5-dimethylisoxazol-4-yl)-1H-pyrrolo[2,3-b]pyridin-3-yl)-4,6-diethoxypicolinic acid] | 0.1 to 1000
6 | COc1cc(C(=O)O)ncc1-c1cn(C2CCOCC2)c2ncc(-c3c(C)noc3C)cc12 [P-0362, 5-(5-(3,5-dimethylisoxazol-4-yl)-1-(tetrahydro-2H-pyran-4-yl)-1H-pyrrolo[2,3-b]pyridin-3-yl)-4-methoxypicolinic acid] | 0.1 to 1000
7 | Cc1cc(C(=O)O)cc(OCC(F)F)c1-c1cn(C2CCOCC2)c2ncc(-c3c(C)noc3C)cc12 [P-0367, 3-(2,2-difluoroethoxy)-4-(5-(3,5-dimethylisoxazol-4-yl)-1-(tetrahydro-2H-pyran-4-yl)-1H-pyrrolo[2,3-b]pyridin-3-yl)-5-methylbenzoic acid] | 0.1 to 1000
8 | Cc1cc(-c2cn(C(c3ccccn3)C3CCCC3)c3ncc(-c4c(C)noc4C)cc23)ccc1C(=O)O (stereo not drawn) [P-0028, 4-(1-(cyclopentyl(pyridin-2-yl)methyl)-5-(3,5-dimethylisoxazol-4-yl)-1H-pyrrolo[2,3-b]pyridin-3-yl)-2-methylbenzoic acid] | 0.1 to 1000
9 | CCOc1cc(C(=O)O)cc(Cl)c1-c1cn(C(C2CC2)C2CC2)c2ncc(-c3c(C)noc3C)cc12 [P-0370, 3-chloro-4-(1-(dicyclopropylmethyl)-5-(3,5-dimethylisoxazol-4-yl)-1H-pyrrolo[2,3-b]pyridin-3-yl)-5-ethoxybenzoic acid] | 0.1 to 1000
10 | Cc1noc(C)c1-c1cnc2c(c1)c(-c1ccc(C(=O)O)cc1OC(F)(F)F)cn2C1(C)CCOCC1 [P-0385, 4-(5-(3,5-dimethylisoxazol-4-yl)-1-(4-methyltetrahydro-2H-pyran-4-yl)-1H-pyrrolo[2,3-b]pyridin-3-yl)-3-(trifluoromethoxy)benzoic acid] | 0.1 to 1000
11 | Cc1noc(C)c1-c1cnc2c(c1)c(-c1ccc(C(=O)O)cc1OC1CCC1)cn2-c1cnn(C(F)F)c1C [P-0353, 3-cyclobutoxy-4-(1-(1-(difluoromethyl)-5-methyl-1H-pyrazol-4-yl)-5-(3,5-dimethylisoxazol-4-yl)-1H-pyrrolo[2,3-b]pyridin-3-yl)benzoic acid] | 0.1 to 1000
12 | Cc1noc(C)c1-c1cnc2c(c1)c(-c1ccc(C(=O)O)cc1OC(F)(F)F)cn2-c1cnc(C2CC2)nc1 [P-0384, 4-(1-(2-cyclopropylpyrimidin-5-yl)-5-(3,5-dimethylisoxazol-4-yl)-1H-pyrrolo[2,3-b]pyridin-3-yl)-3-(trifluoromethoxy)benzoic acid] | 0.1 to 1000
13 | Cc1noc(C)c1-c1cnc2c(c1)c(-c1ccc(C(=O)O)cc1OC(C)C)cn2-c1ncccc1C#N [P-0336, 4-(1-(3-cyanopyridin-2-yl)-5-(3,5-dimethylisoxazol-4-yl)-1H-pyrrolo[2,3-b]pyridin-3-yl)-3-isopropoxybenzoic acid] | 0.1 to 1000
14 | Cc1noc(C)c1-c1cnc2c(c1)c(-c1ccc(C(=O)O)cc1OCC(F)F)cn2-c1cnc(N2CCC2)nc1 [P-0328, 4-(1-(2-(azetidin-1-yl)pyrimidin-5-yl)-5-(3,5-dimethylisoxazol-4-yl)-1H-pyrrolo[2,3-b]pyridin-3-yl)-3-(2,2-difluoroethoxy)benzoic acid] | 0.1 to 1000
15 | Cc1noc(C)c1-c1cnc2c(c1)c(-c1ccc(C(=O)O)cc1OC(F)(F)F)cn2C1CCCC1 [P-0382, 4-(1-cyclopentyl-5-(3,5-dimethylisoxazol-4-yl)-1H-pyrrolo[2,3-b]pyridin-3-yl)-3-(trifluoromethoxy)benzoic acid] | 0.1 to 1000
16 | Cc1noc(C)c1-c1cnc2c(c1)c(-c1c(F)cc(C(=O)O)cc1OCC(F)F)cn2-c1ccccc1 [P-0327, 3-(2,2-difluoroethoxy)-4-(5-(3,5-dimethylisoxazol-4-yl)-1-phenyl-1H-pyrrolo[2,3-b]pyridin-3-yl)-5-fluorobenzoic acid] | 0.1 to 1000
17 | Cc1noc(C)c1-c1cnc2c(c1)c(-c1ccc(C(=O)O)cc1OC1CCC1)cn2-c1ncccc1C#N [P-0334, 4-(1-(3-cyanopyridin-2-yl)-5-(3,5-dimethylisoxazol-4-yl)-1H-pyrrolo[2,3-b]pyridin-3-yl)-3-cyclobutoxybenzoic acid] | 0.1 to 1000
18 | COc1cc(C(=O)O)ncc1-c1cn(-c2ccncc2Cl)c2ncc(-c3c(C)noc3C)cc12 [P-0324, 5-(1-(3-chloropyridin-4-yl)-5-(3,5-dimethylisoxazol-4-yl)-1H-pyrrolo[2,3-b]pyridin-3-yl)-4-methoxypicolinic acid] | 0.1 to 1000
19 | CCOc1cc(C(=O)O)c(F)cc1-c1cn(-c2ccccc2F)c2ncc(-c3c(C)noc3C)cc12 [P-0377, 4-(5-(3,5-dimethylisoxazol-4-yl)-1-(2-fluorophenyl)-1H-pyrrolo[2,3-b]pyridin-3-yl)-5-ethoxy-2-fluorobenzoic acid] | 0.1 to 1000
20 | Cc1noc(C)c1-c1cnc2c(c1)c(-c1ccc(C(=O)O)cc1OC(F)(F)F)cn2CC1(C#N)CCC1 [P-0364, 4-(1-((1-cyanocyclobutyl)methyl)-5-(3,5-dimethylisoxazol-4-yl)-1H-pyrrolo[2,3-b]pyridin-3-yl)-3-(trifluoromethoxy)benzoic acid] | 0.1 to 1000
21 | Cc1noc(C)c1-c1cnc2c(c1)c(-c1ccc(C(=O)O)cc1OC(C)C)cn2-c1cnn(C(F)F)c1C [P-0354, 4-(1-(1-(difluoromethyl)-5-methyl-1H-pyrazol-4-yl)-5-(3,5-dimethylisoxazol-4-yl)-1H-pyrrolo[2,3-b]pyridin-3-yl)-3-isopropoxybenzoic acid] | 0.1 to 1000
22 | COc1cc(C(=O)O)ncc1-c1cn(C(C2CC2)C2CC2)c2ncc(-c3c(C)noc3C)cc12 [P-0339, 5-(1-(dicyclopropylmethyl)-5-(3,5-dimethylisoxazol-4-yl)-1H-pyrrolo[2,3-b]pyridin-3-yl)-4-methoxypicolinic acid] | 0.1 to 1000
23 | Cc1noc(C)c1-c1ccc2c(c1)c(-c1ccc(C(=O)O)cc1OC(F)(F)F)cn2C(C1CC1)C1CC1 [P-0344, 4-(1-(dicyclopropylmethyl)-5-(3,5-dimethylisoxazol-4-yl)-1H-indol-3-yl)-3-(trifluoromethoxy)benzoic acid] | 0.1 to 1000
24 | Cc1noc(C)c1-c1cnc2c(c1)c(-c1c(Cl)cc(C(=O)O)cc1OC(C)C)cn2C1CCOCC1 [P-0372, 3-chloro-4-(5-(3,5-dimethylisoxazol-4-yl)-1-(tetrahydro-2H-pyran-4-yl)-1H-pyrrolo[2,3-b]pyridin-3-yl)-5-isopropoxybenzoic acid] | 0.1 to 1000
25 | Cc1noc(C)c1-c1cnc2c(c1)c(-c1c(Cl)cc(C(=O)O)cc1OC(F)(F)F)cn2[C@H]1CCOC1 [P-0346, (S)-3-chloro-4-(5-(3,5-dimethylisoxazol-4-yl)-1-(tetrahydrofuran-3-yl)-1H-pyrrolo[2,3-b]pyridin-3-yl)-5-(trifluoromethoxy)benzoic acid] | 0.1 to 1000
26 | Cc1noc(C)c1-c1cnc2c(c1)c(-c1c(Cl)cc(C(=O)O)cc1OCC(F)F)cn2-c1cnc(N2CCC2)nc1 [P-0331, 4-(1-(2-(azetidin-1-yl)pyrimidin-5-yl)-5-(3,5-dimethylisoxazol-4-yl)-1H-pyrrolo[2,3-b]pyridin-3-yl)-3-chloro-5-(2,2-difluoroethoxy)benzoic acid] | 0.1 to 1000
27 | Cc1noc(C)c1-c1cnc2c(c1)c(-c1ccc(C(=O)O)cc1OC(C)C)c(C)n2C(C1CC1)C1CC1 [P-0342, 4-(1-(dicyclopropylmethyl)-5-(3,5-dimethylisoxazol-4-yl)-2-methyl-1H-pyrrolo[2,3-b]pyridin-3-yl)-3-isopropoxybenzoic acid] | 0.1 to 1000
28 | Cc1noc(C)c1-c1cnc2c(c1)c(-c1c(Cl)cc(C(=O)O)cc1OCC(F)F)cn2C(C1CC1)C1CC1 [P-0340, 3-chloro-4-(1-(dicyclopropylmethyl)-5-(3,5-dimethylisoxazol-4-yl)-1H-pyrrolo[2,3-b]pyridin-3-yl)-5-(2,2-difluoroethoxy)benzoic acid] | 0.1 to 1000
29 | Cc1noc(C)c1-c1cnc2c(c1)c(-c1c(Cl)cc(C(=O)O)cc1OCC(F)F)cn2-c1cnn(C(F)F)c1C [P-0352, 3-chloro-5-(2,2-difluoroethoxy)-4-(1-(1-(difluoromethyl)-5-methyl-1H-pyrazol-4-yl)-5-(3,5-dimethylisoxazol-4-yl)-1H-pyrrolo[2,3-b]pyridin-3-yl)benzoic acid] | 0.1 to 1000
30 | Cc1nn(C(F)F)cc1-n1cc(-c2ccc(C(=O)O)cc2OC2CCC2)c2cc(-c3c(C)noc3C)cnc21 [P-0351, 3-cyclobutoxy-4-(1-(1-(difluoromethyl)-3-methyl-1H-pyrazol-4-yl)-5-(3,5-dimethylisoxazol-4-yl)-1H-pyrrolo[2,3-b]pyridin-3-yl)benzoic acid] | 0.1 to 1000
